Assays:
[1] = test system: RSV; assay: RSV plaque reduction by small molecule peptide inhibitors on Vero cells (Example II); format: cell-based, RSV/A2; conditions: peptide added to heparin 5 μg/ml; in words
Method: Vero cells were treated with PBS, RT33, RT34, Δ+1, Δ−1 and EYp1 peptides (100 μm) in the presence (B) or absence of heparin (A) (5 μg/ml). Percentage inhibition was determined by dividing the mean plaque forming units (PFU) of treated Vero cells by the mean PFU of PBS-treated Vero cells.
Different concentrations of the G glycoprotein peptides and/or 5 μg/ml heparin (Sigma) were diluted in Dulbecco's phosphate buffered saline (D-PBS; GIBCO) and added to Vero cell monolayers for 1 h at 37° C. Pre-treated Vero cells were infected with 10^6 PFU of RSV/A2 diluted in serum-free DMEM (GIBCO) for 2 h at 37° C., after which DMEM (GIBCO) containing 10% FBS (Hyclone, Logan, Utah) was added, and the infected cells incubated at 37° C. for 3-4 days. Plaques were enumerated by immunostaining with monoclonal antibodies against the G and F glycoproteins (130-2G and 131-2A, respectively), as described (54,55).

[2] = test system: cell trafficking to the lung (BAL cells); assay: In vivo cell trafficking to the lung of naïve mice after intranasal treatment; parameters: species or system BALB/c mice; conditions: for Percentage of cells from BAL determined by flow cytometry: B220 / Percentage of cells from BAL determined by flow cytometry: CD4 / Percentage of cells from BAL determined by flow cytometry: CD8 / Percentage of cells from BAL determined by flow cytometry: CD11b / Percentage of cells from BAL determined by flow cytometry: DX5 / Percentage of cells from BAL determined by flow cytometry: RB6-8C5 / Percentage of cells from BAL determined by H&E stain: Eosinophil / Percentage of cells from BAL determined by H&E stain: Lymphocyte / Percentage of cells from BAL determined by H&E stain: Macrophage / Percentage of cells from BAL determined by H&E stain: PMN: day 2 post-treatment; for Percentage of cells from BAL determined by flow cytometry: B220 / Percentage of cells from BAL determined by flow cytometry: CD4 / Percentage of cells from BAL determined by flow cytometry: CD8: lymphocyte gate; for Percentage of cells from BAL determined by flow cytometry: CD11b / Percentage of cells from BAL determined by flow cytometry: DX5 / Percentage of cells from BAL determined by flow cytometry: RB6-8C5: ungated events; for Percentage of cells from BAL determined by H&E stain: Eosinophil / Percentage of cells from BAL determined by H&E stain: Lymphocyte / Percentage of cells from BAL determined by H&E stain: Macrophage / Percentage of cells from BAL determined by H&E stain: PMN / mean BAL cell numbers (±SEM) recovered: naïve BALB/c mice; for Percentage of cells from BAL determined by H&E stain: Eosinophil / Percentage of cells from BAL determined by H&E stain: Lymphocyte / Percentage of cells from BAL determined by H&E stain: Macrophage / Percentage of cells from BAL determined by H&E stain: PMN: i.n. 1 μM, median ± SE; for mean BAL cell numbers (±SEM) recovered: intranasal 1 μM, 48 hours post-treatment
Method: FIG. 5A is a bar graph showing leukocyte chemotaxis toward G glycoprotein or fractalkine (Fkn) in the presence or absence of anti-CX3CR1 antibody or normal rabbit sera. The chemotactic index determined from the fold increase of murine leukocyte migration toward the chemoattractant (e.g., Fkn or G glycoprotein) over the leukocyte migration toward the media alone control using modified Boyden chambers. Fkn, G glycoprotein, […] (10 μg) or normal rabbit sera (10 μg) was added to the upper chamber to examine antagonism of cell migration toward the chemoattractant in the lower chamber. FIG. 5B is a bar graph showing cell trafficking to the lung of naïve BALB/c mice intranasally treated with G glycoprotein, fractalkine or G glycoprotein peptides RT32, RT33 or RT34. BAL cells were fixed and stained with H&E. Cell subsets were determined as a percentage of the total BAL cells counted from >200 cells/slide counting two slides for each experiment. The percent cell type represents the median±SE from three separate experiments. * indicates significant difference compared to tissue culture media alone (p<0.05). Naïve BALB/c mice were i.n. treated with 1 μM G glycoprotein or fractalkine or with 1 μM G glycoprotein peptides. The BAL was collected 2 days post-treatment for analysis.
Cell trafficking to the lung in naïve and FI-RSV-immune BALB/c mice was examined following intranasal treatment with either 1 μM fractalkine, RSV G glycoprotein or RSV G peptides. All mice were females purchased from Harlan Sprague Dawley (Indianapolis, Ind.) and maintained at the Centers for Disease Control and Prevention in Atlanta, Ga. FI-RSV-immune mice were immunized in the superficial gluteal muscle using 10^6 pfu equivalents of FI-RSV in accordance with methods known to those skilled in the art. Mice were anesthetized with 2,2,2,-tribromoethanol and intranasally treated with 0.05 ml of either fractalkine, RSV G glycoprotein or peptide diluted in PBS (GIBCO). At day two post-treatment, the mice were anesthetized, exsanguinated by severing the right caudal artery, and the bronchoalveolar (BAL) cells collected in PBS containing 1% BSA (Sigma). BAL cells were blocked with 10% normal mouse sera (Jackson Laboratories, Bar Harbor, Me.) in PBS, and then stained with the appropriate combinations of FITC- or PE-labeled anti-CD3 (145-2C11), anti-CD4 (GK1.5), anti-CD8 (53-6.7), anti-CD11b (M1/70), anti-CD45R/B220 (RA3-6B2), anti-pan NK cell (DX5), anti-neutrophil (RB6-8C5), and mouse isotype Ab controls (all from PharMingen, San Diego, Calif.). The distribution of cell surface markers was determined in two-color mode on a FACScan with CellQUEST software (Becton-Dickinson, Mountain View, Calif.).

[3] = test system: human peripheral blood mononuclear cells; assay: Human PBMC chemotaxis and CX3CR1 expression in modified Boyden chamber; format: cell-based; conditions: for Chemotactic Indices / CX3CR1 Expression (%) Lower / CX3CR1 Expression (%) Upper: 6 h
Method: Leukocyte chemotaxis toward Fkn, G glycoprotein or media was measured according to Boyden^46 using 24 well plates (Costar, Cambridge, Mass.) with 3 μm filter inserts (Nalge Nunc, Rochester, N.Y.) coated with an extracellular matrix consisting primarily of laminin, collagen IV and proteoglycan (ECM, Sigma, St. Louis, Mo.). For murine studies, 5×10^5 naïve spleen cells was placed in the upper chamber and 10 nM mouse Fkn or 10 nM G glycoprotein, anti-CX3CR1 antibody, anti-G or anti-F glycoprotein monoclonal antibody, normal rabbit sera, rabbit anti-CCR5 sera or media was placed in the upper or lower chamber as appropriate. For human studies, 10^6 density gradient purified (Lymphocyte Separation Media, ICN Biomedicals, Aurora, Ohio, per manufacture instructions) peripheral blood mononuclear cells (PBMC) from normal human adult donors was placed in the upper chamber in the presence or absence of 1 μM peptide RT33, and 10 nM human Fkn, 10 nM G glycoprotein or 1 μM peptide RT33 placed in the lower chambers. The modified Boyden chamber was incubated at 37° C. for 4-6 h, the inserts removed, washed in PBS (GIBCO BRL), fixed in 3% gluteraldehyde and stained in formalin-buffered 0.01% crystal violet. Chemotactic cells were visualized with a microscope. Chemotactic cells were analyzed for CX3CR1 expression by collecting cells from the upper or lower modified Boyden chambers, antibody staining (2A9-1) and flow cytometry as described. Leucocytes chemotactic toward G or Fkn expressed a higher percent of CX3CR1 in the lower (25-30%) versus upper chamber (7-11%).
Leukocyte chemotaxis and percent positive CX3CR1 expression on human PBMC after a 6 h chemotaxis assay were determined. The percentage of cells positive for CX3CR1 in both upper and lower modified Boyden chambers are shown. Chemotactic indices were determined from the fold increase of leukocyte migration toward the chemoattractant, i.e. Fkn, G glycoprotein or peptide RT33, over the leukocyte migration toward media alone. TCM=tissue culture media.

[4] = TCM in upper chamber, substance in lower chamber (10 nM G or Fkn, 1 μM RT33)
[5] = TCM in upper chamber, substance in lower chamber
[6] = 1 μM RT33 in upper chamber, Fkn in lower chamber
[7] = 1 μM RT33 in upper chamber, G glycoprotein in lower chamber

| Molecule | effect of adding peptide to heparin on plaque reduction [1] | Percentage of cells from BAL determined by flow cytometry: B220 [2] | Percentage of cells from BAL determined by flow cytometry: CD4 [2] | Percentage of cells from BAL determined by flow cytometry: CD8 [2] | Percentage of cells from BAL determined by flow cytometry: CD11b [2] | Percentage of cells from BAL determined by flow cytometry: DX5 [2] | Percentage of cells from BAL determined by flow cytometry: RB6-8C5 [2] | Percentage of cells from BAL determined by H&E stain: Eosinophil [2] | Percentage of cells from BAL determined by H&E stain: Lymphocyte [2] | Percentage of cells from BAL determined by H&E stain: Macrophage [2] | Percentage of cells from BAL determined by H&E stain: PMN [2] | mean BAL cell numbers (±SEM) recovered [2] | Chemotactic Indices [3, 4] | CX3CR1 Expression (%) Lower [3, 5] | CX3CR1 Expression (%) Upper [3, 5] | also measured |
| --- | --- | --- | --- | --- | --- | --- | --- | --- | --- | --- | --- | --- | --- | --- | --- | --- |
| NKKPGKKTTTKP [RT34] | no effect above heparin treatment alone | 4 ± 2% | 6 ± 2% | 3 ± 3% | 3 ± 1% | 6 ± 2% | 6 ± 4% | 0 ± 0% | 8 ± 2% | 86 ± 8% | 8 ± 3% | 2.8 (±0.2) ×10^5 cells/ml | – | – | – | – |
| TCWACKRIPNK (TCWAIACKRIPNK) [Δ − 1] | no effect above heparin treatment alone | – | – | – | – | – | – | – | – | – | – | – | – | – | – | – |
| VPCSICSNNPTC [RT32] | – | 3 ± 2% | 2 ± 2% | 2 ± 2% | 3 ± 2% | 2 ± 1% | 2 ± 2% | 0 ± 0% | 12 ± 4% | 94 ± 5% | 2 ± 2% | 2.2 (±0.5) ×10^5 cells/ml | – | – | – | – |
| TCWAIACKRIPNK [Δ + 1] | no effect above heparin treatment alone | – | – | – | – | – | – | – | – | – | – | – | – | – | – | – |
| Fkn: CX3C chemokine fractalkine (R&D), ligand of CX3CR1 [reference compound] | – | 6 ± 2% | 16 ± 4% | 6 ± 2% | 12 ± 4% | 17 ± 8% | 10 ± 6% | 0 ± 0% | 10 ± 3% | 71 ± 10% | 16 ± 5% | 3.8 (±0.6) ×10^5 cells/ml | 3.2-3.7 | 26-30% | 7-8% | – |
| TCWAICKRIPNK [RT33] | – | 4 ± 2% | 10 ± 2% | 4 ± 2% | 10 ± 4% | 10 ± 2% | 12 ± 2% | 0 ± 0% | 4 ± 2% | 76 ± 8% | 16 ± 6% | 3.5 (±0.3) ×10^5 cells/ml | 1.6-2.2 | 16-18% | 11-16% | CX3CR1 Expression (%) Lower [3, 6]: 6-14%; CX3CR1 Expression (%) Upper [3, 6]: 16-21%; Chemotactic Indices [3, 6]: 1.8-2.2; CX3CR1 Expression (%) Lower [3, 7]: 9-14%; CX3CR1 Expression (%) Upper [3, 7]: 16-18%; Chemotactic Indices [3, 7]: 1.5-2.0; effect on chemotaxis toward G glycoprotein and Fkn ([3]; peptide added to upper Boyden chamber, in words): reduced chemotaxis toward both G glycoprotein and Fkn |
| G glycoprotein: purified G glycoprotein isolated from RSV/A2-infected Vero cells (protein) MSKNKDQRTAKTLERTWDTLNHLLFISSCLYKLNLKSVAQITLSILAMIISTSLIIAAIIFIASANHKVTPTTAIIQDATSQIKNTTPTYLTQNPQLGISPSNPSEITSQITTILASTTPGVKSTLQSTTVKTKNTTTTQTQPSKPTTKQRQNKPPSKPNNDFHFEVFNFVPCSICSNNPTCWAICKRIPNKKPGKKTTTKPTKKPTLKTTKKDPKPQTTKSKEVPTTKPTEEPTINTTKTNIITTLLTSNTTGNPELTSQMETFHSTSSEGNPSPSQVSTTSEYPSQPSSPPNTPRQ | – | 5 ± 4% | 8 ± 2% | 4 ± 3% | 12 ± 5% | 9 ± 6% | 10 ± 4% | 0 ± 0% | 10 ± 3% | 68 ± 10% | 22 ± 4% | 4.6 (±1.1) ×10^5 cells/ml | 3.0-3.6 | 25-30% | 8-11% | – |

— patent publication US8173131B2, “Compositions and methods for modulating RSV infection and immunity” (PerkinElmer Health Sciences, Inc., priority 2000, dated 2012)
